Reference: ChEMBL document CHEMBL1146649, “New highly active taxoids from 9 beta-dihydrobaccatin-9,10-acetals. Part 5” (2004)
≈ marks a conversion by molar mass, not a printed value.

Columns and labels:
Type in all cases: functional
[1] = system: P388; assay: Concentration required to inhibit mouse P388 cell line growth by 50% at 72 hr continuous exposure; conditions: P388, 72 h
[2] = system: Mus musculus; assay: Maximum rate of body weight loss after peroral administration of 100 mg/kg of compound in mice; conditions: route oral
[3] = system: Mus musculus; assay: Maximum rate of body weight loss after peroral administration of 600 mg/kg of compound in mice; <0 indicates no body weight loss; conditions: route oral
[4] = system: PC-6; assay: Concentration required to inhibit human PC-6 cell line growth by 50% at 72 hr continuous exposure; conditions: PC-6, 72 h
[5] = system: Mus musculus; assay: Number of mice died at 600 mg/kg of peroral dose of compound among the total 6 mice tested; conditions: route oral
[6] = system: Mus musculus; assay: Number of mice died at 100 mg/kg of peroral dose of compound among the total 6 mice tested; conditions: route oral
[7] = system: PC-12; assay: Concentration required to inhibit human PC-12 cell line growth by 50% at 72 hr continuous exposure; conditions: PC-12, 72 h
[8] = system: Mus musculus; assay: Antitumor activity of 600 mg/kg of perorally administered compound against B16 melanoma BL6 cells implanted into mice, value reported is percent compared to control; conditions: route oral
[9] = system: Mus musculus; assay: Antitumor activity of 100 mg/kg of perorally administered compound against B16 melanoma BL6 cells implanted into mice, value reported is percent compared to control; conditions: route oral
[10] = system: PC-6; assay: Concentration required to inhibit human PC-6/VCR29-9 cell line growth by 50% at 72 hr exposure; conditions: PC-6, 72 h
[11] = system: PC-6; assay: Concentration required to inhibit human PC-6/VP1-1 cell line growth by 50% at 72 hr exposure; conditions: PC-6, 72 h
[12] = system: Mus musculus; assay: Maximum rate of body weight loss after peroral administration of 27.0 mg/kg of compound in mice; conditions: route oral
[13] = system: Mus musculus; assay: Antitumor activity of 18.0 mg/kg of perorally administered compound against B16 melanoma BL6 cells implanted into mice, value reported is percent compared to control; conditions: route oral
[14] = system: Mus musculus; assay: Antitumor activity of 12.0 mg/kg of perorally administered compound against B16 melanoma BL6 cells implanted into mice, value reported is percent compared to control; conditions: route oral
[15] = system: Mus musculus; assay: Number of mice died at 12.0 mg/kg of peroral dose of compound among the total 6 mice tested; conditions: route oral
[16] = system: Mus musculus; assay: Antitumor activity of 27.0 mg/kg of perorally administered compound against B16 melanoma BL6 cells implanted into mice, value reported is percent compared to control; conditions: route oral
[17] = system: Mus musculus; assay: Maximum rate of body weight loss after intravenous administration of 12.0 mg/kg of compound in mice; <0 indicates no body weight loss
[18] = system: Mus musculus; assay: Antitumor activity of 5.3 mg/kg of intravenously administered compound against B16 melanoma BL6 cells implanted into mice, value reported is percent compared to control; conditions: route intravenous
[19] = system: Mus musculus; assay: Number of mice died at 18.0 mg/kg of peroral dose of compound among the total 6 mice tested; conditions: route oral
[20] = system: Mus musculus; assay: Number of mice died at 27.0 mg/kg of peroral dose of compound among the total 6 mice tested; conditions: route oral
[21] = system: Mus musculus; assay: Antitumor activity of 18.0 mg/kg of intravenously administered compound against B16 melanoma BL6 cells implanted into mice, value reported is percent compared to control; conditions: route intravenous
[22] = system: Mus musculus; assay: Number of mice died at 5.3 mg/kg of intravenous dose of compound among the total 6 mice tested
[23] = system: Mus musculus; assay: Maximum rate of body weight loss after peroral administration of 18.0 mg/kg of compound in mice; conditions: route oral
[24] = system: Mus musculus; assay: Antitumor activity of 8.0 mg/kg of intravenously administered compound against B16 melanoma BL6 cells implanted into mice, value reported is percent compared to control; conditions: route intravenous
[25] = system: Mus musculus; assay: Effective dose of perorally administered compound against B16 melanoma BL6 cells implanted into mice; range is 12.0-27.0; conditions: B16, po
[26] = system: Mus musculus; assay: Maximum rate of body weight loss after peroral administration of 8.0 mg/kg of compound in mice; <0 indicates no body weight loss; conditions: route oral
[27] = system: Mus musculus; assay: Maximum rate of body weight loss after intravenous administration of 18.0 mg/kg of compound in mice
[28] = system: Mus musculus; assay: Number of mice died at 12.0 mg/kg of intravenous dose of compound among the total 6 mice tested
[29] = system: Mus musculus; assay: Number of mice died at 8.0 mg/kg of peroral dose of compound among the total 6 mice tested; conditions: route oral
[30] = system: Mus musculus; assay: Maximum rate of body weight loss after peroral administration of 12.0 mg/kg of compound in mice; <0 indicates no body weight loss; conditions: route oral
[31] = system: Mus musculus; assay: Antitumor activity of 12.0 mg/kg of intravenously administered compound against B16 melanoma BL6 cells implanted into mice, value reported is percent compared to control; conditions: route intravenous
[32] = system: Mus musculus; assay: Maximum rate of body weight loss after intravenous administration of 8.0 mg/kg of compound in mice; <0 indicates no body weight loss
[33] = system: Mus musculus; assay: Number of mice died at 8.0 mg/kg of intravenous dose of compound among the total 6 mice tested
[34] = system: Mus musculus; assay: Maximum rate of body weight loss after intravenous administration of 5.3 mg/kg of compound in mice; <0 indicates no body weight loss
[35] = system: Mus musculus; assay: Antitumor activity of 8.0 mg/kg of perorally administered compound against B16 melanoma BL6 cells implanted into mice, value reported is percent compared to control; conditions: route oral
[36] = system: Mus musculus; assay: Number of mice died at 18.0 mg/kg of intravenous dose of compound among the total 6 mice tested
[37] = system: Mus musculus; assay: Effective dose of intravenously administered compound against B16 melanoma BL6 cells implanted into mice; range is 5.3-18.0; conditions: B16, iv
[38] = system: Mus musculus; assay: Effective dose of intravenously administered compound against B16 melanoma BL6 cells implanted into mice; range is 3.5-5.3; conditions: B16, iv
[39] = system: B16; assay: Effective dose of perorally administered compound against B16 melanoma BL6 cells implanted into mice; conditions: Mus musculus, B16, po
[40] = system: PC-6; assay: Concentration that inhibited the growth of PC-6/VCR29-9 cells by 50% at 72 hr continuous exposure; conditions: Homo sapiens, PC-6, 72 h

For `CC(=O)O[C@@]12CO[C@@H]1C[C@H](O)[C@@]1(C)C(=O)[C@H](O)C3=C(C)[C@@H](OC(=O)[C@H](O)[C@@H](NC(=O)OC(C)(C)C)c4ccccc4)C[C@@](O)([C@@H](OCc4ccccc4)[C@H]21)C3(C)C`, which GI50 [1] is on record?
Its GI50 is 0.78 ng/mL (≈ 0.982 nM).

And the BWLmax [2]?
The BWLmax was <0%.

What about the BWLmax [3] of the same compound?
The BWLmax was <0%.

What about the GI50 [4] of the same compound?
The GI50 was 0.26 ng/mL (≈ 0.327 nM).

And the Mortality [5]?
Its Mortality is 0.

And the Mortality [6]?
Its Mortality is 0.

What about the GI50 [7] of the same compound?
The GI50 was 19.1 ng/mL (≈ 24.1 nM).

And the IR [8]?
The IR was 6.2%.

And the IR [9]?
Its IR is 95.1%.

And the GI50 [10]?
The GI50 was 62.1 ng/mL (≈ 78.2 nM).

And the GI50 [11]?
The GI50 was 442 ng/mL (≈ 557 nM).

`CC(=O)O[C@@]12CO[C@@H]1C[C@H](O)[C@@]1(C)[C@@H]3OC(CN4CCOCC4)O[C@@H]3C3=C(C)[C@@H](OC(=O)[C@H](O)[C@@H](NC(=O)OC(C)(C)C)c4ccccn4)C[C@@](O)([C@@H](OCc4ccccc4)[C@H]21)C3(C)C` (some centres undefined) was tested. Which GI50 [1] did it give?
Its GI50 is 0.18 ng/mL (≈ 0.198 nM).

What about the BWLmax [12] of the same compound?
Its BWLmax is 4.5%.

What about the IR [13] of the same compound?
Its IR is 93.3%.

And the IR [14]?
Its IR is 84.9%.

What about the Mortality [15] of the same compound?
The Mortality was 0.

And the IR [16]?
The IR was 97.3%.

What about the BWLmax [17] of the same compound?
The BWLmax was <0%.

What about the IR [18] of the same compound?
The IR was 62.4%.

What about the Mortality [19] of the same compound?
Its Mortality is 0.

What about the Mortality [20] of the same compound?
The Mortality was 0.

What about the IR [21] of the same compound?
The IR was 95.6%.

What about the GI50 [4] of the same compound?
Its GI50 is 0.26 ng/mL (≈ 0.286 nM).

What about the Mortality [22] of the same compound?
The Mortality was 0.

What about the BWLmax [23] of the same compound?
The BWLmax was 0.3%.

What about the GI50 [7] of the same compound?
The GI50 was 0.13 ng/mL (≈ 0.143 nM).

And the IR [24]?
Its IR is 87.2%.

And the ED50 [25]?
The ED50 was 27 mg/kg.

And the BWLmax [26]?
Its BWLmax is <0%.

And the BWLmax [27]?
The BWLmax was 3.7%.

And the Mortality [28]?
Its Mortality is 0.

And the Mortality [29]?
The Mortality was 0.

And the BWLmax [30]?
The BWLmax was <0%.

What about the IR [31] of the same compound?
Its IR is 94.4%.

And the BWLmax [32]?
Its BWLmax is <0%.

What about the GI50 [10] of the same compound?
The GI50 was 2.43 ng/mL (≈ 2.68 nM).

What about the Mortality [33] of the same compound?
The Mortality was 0.

What about the GI50 [11] of the same compound?
Its GI50 is 19.3 ng/mL (≈ 21.3 nM).

And the BWLmax [34]?
The BWLmax was <0%.

And the IR [35]?
Its IR is 27.2%.

And the Mortality [36]?
The Mortality was 0.

What about the ED50 [37] of the same compound?
Its ED50 is 18 mg/kg.

How did the GI50 [1] turn out when `CC(=O)O[C@@]12CO[C@@H]1CC[C@@]1(C)[C@@H]3O[C@H](CN4CCOCC4)O[C@@H]3C3=C(C)[C@@H](OC(=O)[C@H](O)[C@@H](NC(=O)OC(C)(C)C)c4cscn4)C[C@@](O)([C@@H](OCc4ccccc4)[C@@H]12)C3(C)C` was run?
The GI50 was 0.03 ng/mL (≈ 0.0334 nM).

What about the GI50 [4] of the same compound?
Its GI50 is 0.65 ng/mL (≈ 0.724 nM).

And the ED50 [38]?
The ED50 was 5.3 mg/kg.

And the GI50 [7]?
Its GI50 is 0.08 ng/mL (≈ 0.0891 nM).

And the ED50 [39]?
Its ED50 is 7.9 mg/kg.

And the GI50 [11]?
Its GI50 is 9.13 ng/mL (≈ 10.2 nM).

And the GI50 [40]?
The GI50 was 1.02 ng/mL (≈ 1.14 nM).
